Each structure is given as a SMILES string.

As a reminder, the IC50 is the point on the concentration scale where inhibition reaches its midpoint. What is called Ki is the dissociation constant of the complex between target and ligand, obtained from inhibition or displacement. Low values mean tighter binding, high ones weaker binding.

For the experiment, the target named is Proto-oncogene tyrosine-protein kinase Src (Homo sapiens, UniProt P12931). Nature of the experiment: Inhibition of c-Src.
Chain of Proto-oncogene tyrosine-protein kinase Src (P12931 2-536 limits assumed): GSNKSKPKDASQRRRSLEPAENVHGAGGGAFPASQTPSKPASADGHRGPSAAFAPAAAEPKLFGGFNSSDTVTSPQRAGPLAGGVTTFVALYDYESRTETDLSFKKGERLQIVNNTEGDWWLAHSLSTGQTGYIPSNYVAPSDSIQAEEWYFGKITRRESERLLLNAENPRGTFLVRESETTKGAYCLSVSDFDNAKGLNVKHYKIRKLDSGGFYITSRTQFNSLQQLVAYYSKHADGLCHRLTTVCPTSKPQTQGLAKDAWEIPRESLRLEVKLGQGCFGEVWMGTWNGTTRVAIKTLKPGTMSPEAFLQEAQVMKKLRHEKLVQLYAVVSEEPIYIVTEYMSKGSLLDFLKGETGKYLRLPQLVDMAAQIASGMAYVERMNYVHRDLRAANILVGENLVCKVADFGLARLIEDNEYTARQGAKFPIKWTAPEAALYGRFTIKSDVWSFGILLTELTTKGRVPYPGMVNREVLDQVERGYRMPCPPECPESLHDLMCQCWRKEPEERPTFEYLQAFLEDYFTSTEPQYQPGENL
For the compound `COc1cccc(-c2cn(-c3ccc(CCN(C)CCO)cc3)c3ncnc(N)c23)c1`, 31.6 nM corresponded to half-maximal inhibition (IC50). This lies in the double-digit nanomolar range.

Consider `Nc1ncnc2c1c(-c1ccccc1)nn2-c1ccccc1`, for which the half-maximal inhibitory concentration (IC50) was 501 nM. With `Nc1ncnc2c1c(-c1ccc(O)cc1)cn2C1CCC1`, the IC50 was 10 nM. In the case of `Nc1ncnc2c1c(-c1ccccc1)cn2C1CCC1`, the IC50 was 100 nM. Against the preceding compound, the IC50 is about 10-fold higher. Still for that read-out and setting: the same measure for `COc1cccc(-c2cn(C3CCCC3)c3ncnc(N)c23)c1`: 2 nM; for `COc1cccc(-c2cn(C3CCN(CCN(C)CCO)CC3)c3ncnc(N)c23)c1`: 6.31 nM. Same read-out and setting: the same measure for `COc1cccc(-c2cn(C3CCN(CC(N)=O)CC3)c3ncnc(N)c23)c1`: 20 nM; for `COC(=O)CN1CCC(n2cc(-c3cccc(OC)c3)c3c(N)ncnc32)CC1`: 79.4 nM. On the same count and under the same terms, the result for `COc1ccc(-c2cn(C3CCC3)c3ncnc(N)c23)cc1` reads 200 nM; that for `COc1cccc(-c2cn(C3CCN(CCO)CC3)c3ncnc(N)c23)c1`, 25.1 nM; that for `Nc1ncnc2c1c(-c1cccc(O)c1)cn2C1CCCC1`, 1 nM. In the case of `Nc1ncnc2c1c(-c1ccc(O)cc1)cn2C1CCCC1`, the IC50 was 20 nM. `Nc1ncnc2c1c(-c1ccccc1)cn2-c1ccccc1` showed an IC50 of 100 nM. Turning to `CN(C)C(=O)CN1CCC(n2cc(-c3cccc(O)c3)c3c(N)ncnc32)CC1`, the midpoint of inhibition, the IC50, lay at 3.16 nM. On the same count and under the same terms, the result for `COc1ccc(-c2cn(C3CCCC3)c3ncnc(N)c23)cc1` reads 79.4 nM.

For `COc1cccc(-c2cn(-c3ccccc3)c3ncnc(N)c23)c1`, the IC50 is 50.1 nM. `Nc1ncnc2c1c(-c1ccccc1)cn2-c1ccc(CNCCO)cc1` gave an IC50 of 31.6 nM. Take `O=c1[nH]cnc2c1c(-c1ccccc1)cn2-c1ccccc1`: half-maximal inhibition (IC50) was put at 10000 nM. The same measure, in the same setting: the result for `Nc1ncnc2c1c(-c1ccccc1)cn2-c1cccc(CO)c1` reads 63.1 nM; that for `COc1cccc(-c2cn(-c3ccc(CC(=O)NCCO)cc3)c3ncnc(N)c23)c1`, 20 nM; that for `Nc1ncnc2c1c(-c1cccc(Cl)c1)cn2-c1ccccc1`, 200 nM. The same measure, in the same setting: the result for `Nc1ncnc2c1c(-c1ccccc1)cn2-c1ccccc1CNCCO` reads 5010 nM; that for `Nc1ncnc2c1c(-c1ccccc1)cn2-c1cccc(CNCCO)c1`, 10 nM.

`COc1ccc(-c2cn(-c3ccccc3)c3ncnc(N)c23)cc1` showed an IC50 of 158 nM.

Take `COc1cccc(-c2cn(-c3cccc(CO)c3)c3ncnc(N)c23)c1`: inhibition was half-maximal at 63.1 nM (IC50). This IC50 is about 2.5-fold lower than that of the compound before.

For `OC(Cn1ncc2c(NCc3ccc(F)cc3)ncnc21)c1ccccc1` (centres undefined), affinity was put at a Ki of 10000 nM. Take `COC(=O)CN1CCC(n2cc(-c3cccc(O)c3)c3c(N)ncnc32)CC1`: the IC50 is 1 nM. Take `COCCN(C)CCN1CCC(n2cc(-c3cccc(OC)c3)c3c(N)ncnc32)CC1`: half-maximal inhibition (IC50) was put at 50.1 nM. This IC50 lies about 50-fold higher than the previous one. On to `Nc1ncnc2c1c(-c1ccccc1)cn2C1CCCC1`, for which the IC50 is 126 nM. This IC50 is about 2.5-fold higher than that of the compound before.

Compound `COc1cccc(-c2cn(C3CCC3)c3ncnc(N)c23)c1` showed an IC50 of 39.8 nM. Regarding `COc1cccc(-c2cn(C3CCN(CC(=O)N(C)C)CC3)c3ncnc(N)c23)c1`, 63.1 nM corresponded to half-maximal inhibition (IC50). Against the preceding compound, the IC50 is about 1.6-fold higher. Still for that read-out and setting: the same measure for `Nc1ncnc2c1c(-c1cccc(O)c1)cn2C1CCC1`: 3.98 nM; for `CNc1ncnc2c1c(-c1ccccc1)cn2-c1ccccc1`: 10000 nM; for `Nc1ncnc2c1c(-c1ccccc1)cn2-c1ccc(CO)cc1`: 20 nM.

`CCOC(=O)c1ccc(-c2cn(-c3ccccc3)c3ncnc(N)c23)cc1` had a half-maximal inhibitory concentration (IC50) of 10000 nM. Compared with the last compound, the IC50 is about 500-fold higher. As for `CSc1nc(Nc2cccc(Cl)c2)c2cnn(CC(Cl)c3ccccc3)c2n1` (centres undefined), the affinity corresponds to a Ki of 794 nM. Same read-out and setting: the result for `ClC(Cn1ncc2c(NCc3ccccc3)ncnc21)c1ccccc1` (centres undefined) reads 3160 nM. As to `COc1cccc(-c2cn(-c3ccc(CNCCO)cc3)c3ncnc(N)c23)c1`, the IC50 is 31.6 nM.

Take `Clc1ncnc2c1c(-c1ccccc1)cn2-c1ccccc1`: the IC50 was 7940 nM.

Consider `Nc1ncnc2c1c(-c1ccccc1)cn2-c1ccccc1CO`, for which half-maximal inhibition (IC50) required 316 nM.

For `CCOC(=O)C[C@@H]1C[C@H](n2cc(-c3ccc(O)cc3)c3c(N)ncnc32)CN1`, the IC50 was 5.01 nM. The same measure, in the same setting: the result for `CC(C)(C)OC(=O)N1C[C@@H](n2cc(-c3ccccc3)c3c(N)ncnc32)C[C@H]1CO` reads 2000 nM; that for `CCOC(=O)C[C@@H]1C[C@@H](n2cc(-c3ccc(O)cc3)c3c(N)ncnc32)CN1C(=O)OC(C)(C)C`, 31.6 nM.

Compound `CCOC(=O)C[C@@H]1C[C@@H](n2cc(-c3ccccc3)c3c(N)ncnc32)CN1` showed an IC50 of 631 nM. On the same count and under the same terms, the result for `Nc1ncnc2c1c(-c1ccccc1)cn2[C@@H]1CN[C@H](CO)C1` reads 126 nM; that for `Nc1ncnc2c1c(-c1ccc(O)cc1)cn2[C@@H]1CN[C@H](CO)C1`, 50.1 nM. As to `O=C(O)c1cnc2c(cnn2/C=C/c2ccccc2)c1NCc1ccccc1`, the Ki was 3980 nM. Regarding `Nc1ncnc2c1c(-c1ccc(O)cc1)cn2CC(CO)CO`, the IC50 was 501 nM. Still for that read-out and setting: the same measure for `Nc1ncnc2c1c(-c1ccccc1)cn2[C@@H](CO)c1ccccc1`: 501 nM. As to `Nc1ncnc2c1c(-c1ccccc1)cn2CC(CO)CO`, the IC50 is 200 nM. Same read-out and setting: the result for `CC(C)(C)OC(=O)N1C[C@H](n2cc(-c3ccc(O)cc3)c3c(N)ncnc32)C[C@H]1CO` reads 25.1 nM; that for `Nc1ncnc2c1c(-c1ccccc1)cn2[C@H]1CN[C@H](CO)C1`, 316 nM.

`Nc1ncnc2c1c(-c1ccc(O)cc1)cn2[C@H]1CN[C@H](CO)C1` gave an IC50 of 100 nM. Same read-out and setting: the result for `Nc1ncnc2c1c(-c1ccccc1)cn2CCC(CO)CO` reads 2510 nM.

For `CCOC(=O)C[C@@H]1C[C@H](n2cc(-c3ccc(O)cc3)c3c(N)ncnc32)CN1C(=O)OC(C)(C)C`, the IC50 is 316 nM. Take `CCOC(=O)C[C@@H]1C[C@H](n2cc(-c3ccccc3)c3c(N)ncnc32)CN1`: the IC50 was 15.8 nM.

As for `OCCNCCOc1ccc(-n2cc(-c3cccc(O)c3)c3cncnc32)cc1`, it took 39.8 nM to reach half-maximal inhibition (IC50). Compared with the last compound, the IC50 is about 2.5-fold higher. Compound `COc1cccc(-c2cn(-c3ccc(CCN4CCC(O)CC4)cc3)c3ncnc(N)c23)c1` gave an IC50 of 20 nM. Same read-out and setting: the result for `Nc1ncnc2c1c(-c1ccccc1)cn2C1CC1` reads 251 nM; that for `Nc1ncnc2c1c(-c1ccccc1)cn2[C@H](CO)c1ccccc1`, 5010 nM; that for `CCOC(=O)C[C@@H]1C[C@@H](n2cc(-c3ccccc3)c3c(N)ncnc32)CN1C(=O)OC(C)(C)C`, 398 nM.

On to `COc1ccccc1-c1cn(-c2ccccc2)c2ncnc(N)c12`, for which inhibition was half-maximal at 6310 nM (IC50). Compound `COc1cccc(-c2cn(CC(CO)CO)c3ncnc(N)c23)c1` had an IC50 of 316 nM. `CC(C)(C)OC(=O)N1C[C@@H](n2cc(-c3ccc(O)cc3)c3c(N)ncnc32)C[C@H]1CO` showed an IC50 of 316 nM.

On to `CCOC(=O)C[C@@H]1C[C@@H](n2cc(-c3ccc(O)cc3)c3c(N)ncnc32)CN1`, for which the midpoint of inhibition, the IC50, lay at 100 nM. Same read-out and setting: the same measure for `CC(C)(C)OC(=O)N1C[C@H](n2cc(-c3ccccc3)c3c(N)ncnc32)C[C@H]1CO`: 126 nM. `ClC(Cn1ncc2c(NCCc3ccccc3)ncnc21)c1ccccc1` (centres undefined) had a Ki of 2000 nM. Compound `CCOC(=O)C[C@@H]1C[C@H](n2cc(-c3ccccc3)c3c(N)ncnc32)CN1C(=O)OC(C)(C)C` gave a half-inhibitory concentration (IC50) of 5010 nM. For the compound `CCCNc1ncnc2c1cnn2CC(O)c1ccccc1` (centres undefined), the Ki was 10000 nM. In other words, the double-digit micromolar range.

(Values after ChEMBL document CHEMBL1138565, “Docking, 3D-QSAR studies and in silico ADME prediction on c-Src tyrosine kinase inhibitors” (Eur J Med Chem, 2009).)
